Results as given in patent US8163756B2 (priority 2004, dated 2012).

molecular target: B-Raf(V599E) kinase (Homo sapiens, UniProt P15056, V600E); assay: B-Raf(V599E) kinase assay B1 (construct 1, MEK1 substrate, coupled spectrophotometric); assay type: biochemical
Experimental: The test compounds were incubated with the reaction mixtureat 30° C. for 2 h. […] The reaction rate was calculated using the […] time frame. […] IC50 values were calculated from a series of percent inhibition values determined at a range of inhibitor concentrations using software routines as implemented in the GraphPad Prism software package.

Chain of B-Raf(V599E) kinase (P15056 with tags, fused parts or gaps V600E): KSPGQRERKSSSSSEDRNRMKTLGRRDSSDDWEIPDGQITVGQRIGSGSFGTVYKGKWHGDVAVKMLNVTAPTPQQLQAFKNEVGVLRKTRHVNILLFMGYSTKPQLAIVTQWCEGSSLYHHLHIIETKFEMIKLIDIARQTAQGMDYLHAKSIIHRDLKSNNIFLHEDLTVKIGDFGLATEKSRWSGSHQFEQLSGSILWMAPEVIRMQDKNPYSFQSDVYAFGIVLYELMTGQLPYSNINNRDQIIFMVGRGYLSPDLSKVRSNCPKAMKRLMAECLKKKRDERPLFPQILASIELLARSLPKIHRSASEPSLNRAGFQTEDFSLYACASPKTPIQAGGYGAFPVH

SMILES	IC50 [nM]
CC(C)(C)c1cc(NC(=O)Nc2cccc(Cl)c2Cl)n(-c2cccc(CC(N)=O)c2)n1 [Example 25, 1-{1-[3-(2-amino-2-oxoethyl)phenyl]-3-t-butyl-1H-pyrazol-5-yl}-3-(2,3-dichlorophenyl)urea]	3.5
CC(C)(C)c1cc(NC(=O)Nc2ccccc2)n(-c2cc(CC(N)=O)c3ccccc3c2)n1 [Example 88, 1-(1-(4-(2-amino-2-oxoethyl)naphthalen-2-yl)-3-t-butyl-1H-pyrazol-5-yl)-3-phenylurea]	12
CC(C)(C)c1cc(NC(=O)Nc2ccccc2F)n(-c2cc(CC(N)=O)c3ccccc3c2)n1 [Example 89, 1-(1-(4-(2-amino-2-oxoethyl)naphthalen-2-yl)-3-t-butyl-1H-pyrazol-5-yl)-3-(2-fluorophenyl)urea]	5.5
CC(C)(C)c1cc(NC(=O)Nc2cccc(F)c2F)n(-c2cc(CC(N)=O)c3ccccc3c2)n1 [Example 90, 1-(1-(4-(2-amino-2-oxoethyl)naphthalen-2-yl)-3-t-butyl-1H-pyrazol-5-yl)-3-(2,3-difluorophenyl)urea]	3.9
CC(C)(C)c1cc(NC(=O)Nc2cc(F)c(F)c(F)c2)n(-c2cc(CC(N)=O)c3ccccc3c2)n1 [Example 92, 1-(1-(4-(2-amino-2-oxoethyl)naphthalen-2-yl)-3-t-butyl-1H-pyrazol-5-yl)-3-(3,4,5-trifluorophenyl)urea]	8.2
CC(C)(C)c1cc(NC(=O)NC2CCCC2)n(-c2cc(CC(N)=O)c3ccccc3c2)n1 [Example 93, 1-(1-(4-(2-amino-2-oxoethyl)naphthalen-2-yl)-3-t-butyl-1H-pyrazol-5-yl)-3-cyclopentylurea]	60
C[C@H](NC(=O)Nc1cc(C(C)(C)C)nn1-c1cccc(C#N)c1)c1ccccc1 [Example 211, 1-[3-t-butyl-1-(3-cyanophenyl)-1H-pyrazol-5-yl]-3-((S)-1-phenylethyl)urea]	785
CC(C)(C)c1cc(NC(=O)Nc2ccccc2F)n(-c2cccc(CO)c2)n1 [Example 219, 1-{3-t-butyl-1-[3-(hydroxymethyl)phenyl]-1H-pyrazol-5-yl}-3-(2-fluorophenyl)urea]	55
CC(C)(C)c1cc(NC(=O)Nc2ccc3c(c2)OCO3)n(-c2cccc(CO)c2)n1 [Example 221, 1-(benzo[d][1,3]dioxol-5-yl)-3-(3-t-butyl-1-(3-(hydroxymethyl)phenyl)-1H-pyrazol-5-yl)urea]	88
CC(C)(C)c1cc(NC(=O)Nc2cccc(Cl)c2)n(-c2cccc(CO)c2)n1 [Example 222]	47
CC(C)(C)c1cc(NC(=O)Nc2cccc(Br)c2)n(-c2cccc(CO)c2)n1 [Example 223, 1-{3-t-butyl-1-[3-(hydroxymethyl)phenyl]-1H-pyrazol-5-yl}-3-(3-bromophenyl)urea]	54
CC(C)(C)c1cc(NC(=O)Nc2cccc(Cl)c2Cl)n(-c2cccc(C(=O)O)c2)n1 [Example 226, 3-{3-t-butyl-5-[3-(2,3-dichlorophenyl)ureido]-1H-pyrazol-1-yl}benzoic acid]	20
COc1cccc(-n2nc(C(C)(C)C)cc2NC(=O)Nc2ccc(F)cc2)c1 [Example 230, 1-(3-t-butyl-1-(3-methoxyphenyl)-1H-pyrazol-5-yl)-3-(4-fluorophenyl)urea]	52
COc1cccc(-n2nc(C(C)(C)C)cc2NC(=O)Nc2cccc(Cl)c2)c1 [Example 231, 1-(3-t-butyl-1-(3-methoxyphenyl)-1H-pyrazol-5-yl)-3-(3-chlorophenyl)urea]	27
COc1cccc(-n2nc(C(C)(C)C)cc2NC(=O)Nc2ccc3c(c2)OCO3)c1 [Example 234, 1-(benzo[d][1,3]dioxo-5-yl)-3-(3-t-butyl-1-(3-methoxyphenyl)-1H-pyrazol-5-yl)urea]	32
COc1ccc(-n2nc(C(C)(C)C)cc2NC(=O)Nc2cccc(C(F)(F)F)c2)cc1 [Example 238, 1-[3-t-butyl-1-(4-methoxyphenyl)-1H-pyrazol-5-yl]-3-(3-trifluoromethylphenyl)urea]	65
